Columns and labels:
[1] = system: Palmer amaranth, waterhemp, kochia, common ragweed or marestail; assay: Pot test, foliar spot treatment of weed patches with the crop growing (Example 2); type: in vivo; settings: spot foliar treatment of 20% of pot area, 50 g/ha, 150 L/ha, 1% Agri-Dex; weeds and soybean, corn or cotton 14 days old; 21 days in greenhouse
Protocol: (§1) The evaluation of the herbicidal efficacy is classified into 0 to 100, where the numeral “0” indicates no or little difference in the state of emergence or growth of weeds under test at the time of examination as compared with untreated weeds, and the numeral “100” indicates the complete death of weeds under test or the complete inhibition of emergence or growth of weeds under test.
A pot is filled with soil, and then Palmer amaranth, waterhemp, kochia, common ragweed, or marestail is seeded at a corner portion of the soil, and soybean (Genuity Roundup Ready 2 Xtend), corn (Genuity Roundup Ready 2), or cotton (Genuity Roundup Ready 2 Xtend) is seeded at another corner portion of the soil. The weeds and crops are grown in a greenhouse for 14 days, and a section including vegetation patches of weeds (20% of the area on the pot) is subjected to foliar treatment with a spray liquid of saflufenacil (prepared by diluting Sharpen with water containing 1% (w/v) of adjuvant Agri-Dex) at 50 g/ha (as an application amount in a spot-treated section) and a liquid amount of 150 L/ha (as a liquid amount in a spot-treated section). Thereafter, the weeds and crops are grown in the greenhouse for 21 days. This is defined as the invention plot.

[2] = system: Palmer amaranth, waterhemp, kochia, common ragweed or marestail; assay: Pot test, foliar spot treatment of weed patches before seeding the crop (Example 1); type: in vivo; settings: spot foliar treatment of 20% of pot area, 50 g/ha, 150 L/ha, 1% Agri-Dex; weeds 14 days old; soybean, corn or cotton seeded immediately after; 21 days in greenhouse
Protocol: as §1
A pot is filled with a soil, and then Palmer amaranth, waterhemp, kochia, common ragweed or marestail is seeded at a corner portion of the soil. The weeds are grown in a greenhouse for 14 days, and a section including vegetation patches of weeds (20% of the area on the pot) is subjected to foliar treatment with a spray liquid of saflufenacil (prepared by diluting a commercially available formulation of saflufenacil (aqueous suspension concentrate containing 29.74% of saflufenacil, Sharpen, manufactured by BASF) with water containing 1% (w/v) of adjuvant Agri-Dex) at 50 g/ha (as an application amount in a spot-treated section) and a liquid amount of 150 L/ha (as a liquid amount in a spot-treated section). Immediately thereafter, soybean (Genuity Roundup Ready 2 Xtend), corn (Genuity Roundup Ready 2), or cotton (Genuity Roundup Ready 2 Xtend) is seeded in a corner portion different from vegetation patches of weeds in the soil, and grown in the greenhouse for 21 days. This is defined as the invention plot.

## CC(C)N(C)S(=O)(=O)NC(=O)c1cc(-n2c(=O)cc(C(F)(F)F)n(C)c2=O)c(F)cc1Cl [saflufenacil]
[1]
  weed control effect of the invention plot compared with comparative plots (no crop seeded; uniform blanket treatment): excellent weed control effect
[2]
  weed control effect of the invention plot compared with comparative plots (no crop seeded; uniform blanket treatment): excellent weed control effect

— patent US12245590B2, “Method for controlling weeds” (SUMITOMO CHEMICAL COMPANY, LIMITED, priority 2019, dated 2025)
